Assay results as given in US9012482B2, “Drug containing benzophenone derivative or its salt” (Toyama Chemical Co., Ltd., priority 2007, dated 2015).

Key:
Format in all cases: in vivo, mouse (DBA/1 J)
[1] = tested on: RANKL mRNA; test: RANKL mRNA expression in hind paws of mice with type II collagen-induced arthritis (real-time PCR)
Method: Male DBA/1 J mice at 8-week old (Charles River Laboratories Japan, Inc.) were used. Bovine type II collagen (KOKEN CO., LTD.) dissolved at 2 mg/mL in 0.1 mol/L acetic acid was mixed and emulsified with an equal volume of Freund's complete adjuvant (Difco Laboratories, Inc.), and then 0.2 mL of the emulsion was intradermally injected at the tail head of each mouse. The same treatment was carried out 21 days after the first immunization so that type II collagen-induced arthritis was induced in mice. T-5224 was dissolved in the 2-fold molar amount of sodium hydroxide solution, and then water and polyvinylpyrrolidone (PVP) at 3-fold weight of T-5224 were added to yield 3 mg/mL of T-5224-dosing solution. T-5224 at 30 mg/kg was orally administered once daily from 21 to 34 days after the first immunization. PVP solution was administered to the mice in Control group.
On the next day of final administration, the hind paws were collected. After the excision of claws and skin, they were immersed in RNA-stabilizing agent (RNAlater, Ambion, Inc.) and kept in a refrigerator overnight. Then RNA-stabilizing agent was wiped up, and the hind paws were cryopreserved and crushed by pressing under cooling with the liquid nitrogen. […]
(§1) RT product (100 ng, equivalent amount to RNA) was mixed with 25 μL of quantitative PCR reagent (qPCR Mastermix, Eurogentec S.A.), 2.5 μL of probe/primer solution (TaqMan gene expression assays tumor necrosis factor (ligand) superfamily member 11 Mus musculus, Applied Biosystems) and RNase-free water (Takara Inc.) in total volume of 50 μL, and then PCR reaction (hold at 50° C. for 2 min, hold at 95° C. for 10 min, 40 cycles at 95° C. for 15 sec and at 60° C. for 1 min) was carried out using real-time PCR system (ABI PRISM 7700 sequence detection system, Applied Biosystems) to measure RANKL mRNA. […] The levels of RANKL mRNA and OPG mRNA were expressed as the normalized ratio to Hprt1 mRNA amount.

[2] = tested on: OPG mRNA; test: OPG mRNA expression in hind paws of mice with type II collagen-induced arthritis (real-time PCR); settings: 30 mg/kg orally once daily
Method: Male DBA/1 J mice at 8-week old (Charles River Laboratories Japan, Inc.) were used. Bovine type II collagen (KOKEN CO., LTD.) dissolved at 2 mg/mL in 0.1 mol/L acetic acid was mixed and emulsified with an equal volume of Freund's complete adjuvant (Difco Laboratories, Inc.), and then 0.2 mL of the emulsion was intradermally injected at the tail head of each mouse. The same treatment was carried out 21 days after the first immunization so that type II collagen-induced arthritis was induced in mice. […]
as §1

[3] = tested on: femora of mice with type II collagen-induced arthritis; test: Osteoporosis in femur of mice with type II collagen-induced arthritis: bone density as CT value (μCT)
Method: The induction of mouse type II collagen-induced arthritis and the preparation of T-5224-dosing solution (1 mg/mL) were carried out by the same procedure in Example 1. T-5224 at 10 mg/kg was orally administered once daily from 21 to 49 days after the first immunization. PVP solution was administered to the mice in Control group.
The femora isolated on the next day of final administration were fixed with formalin, and then scanned using μCT scanner system (MCT-100CB, Hitachi, Ltd.) (X-ray tube voltage: 90.0 kV, X-ray tube current: 100 iris: 3630, magnification: ×5, resolution: 30 μm). Bone density was evaluated as CT value using 3D CT image (“img” format) assembled by μCT scanner system and bone morphometry software (TRI-3D/BON, Ratoc System Engineering Co., Ltd.) according to the manufacturer's protocol. The evaluation site was set on a metaphyseal slice with 0.35 mm thickness at a point 3% of the length of the femur from the distal growth plate, according to the report of Jochems C. et al. [Arthritis Research and Therapy, 2005, Vol. 7, page R837-R843].

In the case of `O=C(O)CCc1cc(C(=O)c2ccc(OC3CCCC3)cc2O)ccc1OCc1ccc2c(O)noc2c1` [T-5224], the “inhibition of the increase of RANKL mRNA level” value ([1]; 30 mg/kg orally once daily, days 21 to 34, hind paws) is reported as 84%, the “regulatory effect on expression of RANKL/OPG (in words)” value ([1]; hind paws of mice with type II collagen-induced arthritis, 30 mg/kg orally) is reported as “controlling the expression of RANKL/OPG to normal level” and the “RANKL mRNA level (normalized ratio to Hprt1 mRNA amount)” value ([1]; hind paws, collagen-induced arthritis mice, 30 mg/kg orally once daily, days 21 to 34 after first immunization, Normal 0.096, Control 0.927) is reported as 0.224. For the same molecule, the “inhibition of the decrease of OPG mRNA level” value ([2]; days 21 to 34) was 68%, the “OPG mRNA level (normalized ratio to Hprt1 mRNA amount)” value ([2]; collagen-induced arthritis mice, days 21 to 34 after first immunization, Normal 0.375, Control 0.156) was 0.306 and the “inhibition of the reduction of CT value” ([3]; 10 mg/kg orally once daily, days 21 to 49, femur) was 49%. For the same molecule, the “CT Value (bone density)” value ([3]; femur metaphyseal slice, 10 mg/kg orally once daily, days 21 to 49 after first immunization, Normal 761, Control 657) was 708 and the “effect on development of osteoporosis in femora (in words)” value ([3]; non-arthritic region of mice with type II collagen-induced arthritis, 10 mg/kg orally) was “inhibited the development of osteoporosis in femora”.
